Like-named read-outs stand apart in the source and are kept apart here.

The text below walks through data of US20240245652A1, “METHODS AND COMPOSITIONS FOR MANAGING PAIN COMPRISING DEXMEDETOMIDINE TRANSDERMAL COMPOSITIONS” (Teikoku Pharma USA, Inc., priority 2013, published 2024).

`Cc1cccc([C@H](C)c2cnc[nH]2)c1C` [dexmedetomidine, Dexmedetomidine]: the solubility of dexmedetomidine result (in Duro-Tak 87-2979) is “less than 2%”; the solubility of dexmedetomidine (in Duro-Tak 387/87-2353) is recorded as 10-15%; the solubility of dexmedetomidine entry (in hydroxyl functionalized acrylate polymer) is on record as “less than 1%”; the solubility of dexmedetomidine (in lauryl lactate) is reported as 5 to 10%; the solubility of dexmedetomidine (in levulinic acid) is ~60%; the solubility of dexmedetomidine (in oleic acid) is given as ~40%. The compound also yielded a solubility of dexmedetomidine (in propylene glycolmonolaurate) of 5 to 10%.
